Measurements reported in patent publication US20260327239A1, “COMPOUNDS FOR COVALENT INHIBITION OF SHP2” (Purdue Research Foundation, priority 2023, published 2026).

Key:
[1] = biological target: T1, LYP (Homo sapiens, UniProt Q9Y2R2); assay: Time-dependent IC50 determination, LYP (10 min preincubation, pNPP); type: biochemical
T1 sequence (Q9Y2R2 1-807): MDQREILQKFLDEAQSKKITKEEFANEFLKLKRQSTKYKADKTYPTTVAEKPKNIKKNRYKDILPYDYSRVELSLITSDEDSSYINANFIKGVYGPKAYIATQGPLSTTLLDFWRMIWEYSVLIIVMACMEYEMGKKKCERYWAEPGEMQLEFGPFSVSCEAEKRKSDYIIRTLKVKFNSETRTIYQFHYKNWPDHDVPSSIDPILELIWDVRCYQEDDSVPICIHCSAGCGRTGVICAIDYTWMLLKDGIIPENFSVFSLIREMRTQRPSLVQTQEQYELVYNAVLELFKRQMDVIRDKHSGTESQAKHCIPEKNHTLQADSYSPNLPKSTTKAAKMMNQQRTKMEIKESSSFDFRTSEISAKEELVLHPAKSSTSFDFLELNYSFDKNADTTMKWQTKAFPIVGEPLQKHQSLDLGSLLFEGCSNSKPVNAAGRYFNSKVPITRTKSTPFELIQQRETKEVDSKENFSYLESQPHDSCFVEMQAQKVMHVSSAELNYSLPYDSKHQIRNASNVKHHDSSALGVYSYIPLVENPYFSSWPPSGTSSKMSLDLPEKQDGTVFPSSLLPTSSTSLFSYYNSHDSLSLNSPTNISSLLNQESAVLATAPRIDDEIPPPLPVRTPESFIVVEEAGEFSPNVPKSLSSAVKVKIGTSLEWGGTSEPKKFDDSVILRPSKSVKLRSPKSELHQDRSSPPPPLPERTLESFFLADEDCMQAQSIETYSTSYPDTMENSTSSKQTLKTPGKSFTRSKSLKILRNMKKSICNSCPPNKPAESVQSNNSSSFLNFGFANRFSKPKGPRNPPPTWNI
Experimental: (§1) During active compound characterization, other common PTPs, including SHP1. PTP1B, and LYP, were counter-screened. Compounds were incubated for 10 minutes with the corresponding PTP (4 μM) before being diluted 50-fold into a solution containing excess substrate para-nitrophenyl phosphate (10 mM) to monitor the remaining activity. […] This was not expected, given their high sequence and structural homology. […] While unexpected, the lower sequence homology provides a rationale for the observed selectivity.
(§2) Inhibitors were evaluated for their ability to inhibit the reaction catalyzed by SHP2 using para-nitrophenyl phosphate (pNPP) as a substrate at pH 7 and 25° C. The reaction was started in a clear flat-bottom 96-well plate (Corning Costar Assay Plate #9017) by the addition of 25 μL of 4 μM PTP in DMG buffer to 25 μl of 2× inhibitor (final concentrations=2 μM PTP, 100-0 μM inhibitor). Reactions were incubated for 1 or 10 minutes before transferring 4 μL into 196 μL of 10.1 mM pNPP in DMG buffer (final concentration=40 nM PTP, 10 mM pNPP). These wells were then allowed to react for 10, 45, or 3 minutes for SHP1 and SHP2, LYP, PTP1B respectively before quenching with 50 μL of 5 M NaOH. Plates were then read for absorbance at 405 nm using a CLARIOstar^Plus plate reader (BMG Labetch). […]

[2] = biological target: T2, PTP1B (Homo sapiens, UniProt P18031); assay: Time-dependent IC50 determination, PTP1B (10 min preincubation, pNPP); type: biochemical
T2 sequence (P18031 1-435): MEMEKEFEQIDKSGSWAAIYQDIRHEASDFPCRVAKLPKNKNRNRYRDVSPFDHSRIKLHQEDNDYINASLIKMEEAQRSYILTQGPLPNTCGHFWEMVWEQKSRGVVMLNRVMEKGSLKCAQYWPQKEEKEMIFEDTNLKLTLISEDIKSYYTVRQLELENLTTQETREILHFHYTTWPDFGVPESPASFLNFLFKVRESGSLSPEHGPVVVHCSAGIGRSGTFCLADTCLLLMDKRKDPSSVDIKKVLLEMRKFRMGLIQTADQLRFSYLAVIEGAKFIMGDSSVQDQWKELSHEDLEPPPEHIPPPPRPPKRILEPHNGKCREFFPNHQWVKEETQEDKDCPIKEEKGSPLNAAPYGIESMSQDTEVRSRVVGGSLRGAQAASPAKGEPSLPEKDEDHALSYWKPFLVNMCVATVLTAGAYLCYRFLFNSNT
Experimental: as §1, §2

SMILES: C=C1C(=O)[C@@]2(C(=O)N3CCN(c4ccc(I)cc4)CC3)CC(=O)C[C@@H]1C2 [Compound 37]
- IC50 ([1]; LYP, 10 minutes preincubation, curve not completed (solubility), extrapolated, read-out: 10 Minute IC50): 495 µM
- Fold-Selective (10 Minutes) ([1]; SHP2 over LYP): 31.12
- IC50 ([2]; PTP1B, 10 minutes preincubation, curve not completed (solubility), extrapolated, read-out: 10 Minute IC50): 677 µM
- Fold-Selective (10 Minutes) ([2]; SHP2 over PTP1B): 44.56
